From ChEMBL document CHEMBL4364276, “Discovery of 4-phenyl-2H-benzo[b][1,4]oxazin-3(4H)-one derivatives as potent and orally active PI3K/mTOR dual inhibitors” (Eur J Med Chem, 2019)

biological target: Phosphatidylinositol 4,5-bisphosphate 3-kinase catalytic subunit alpha isoform (Homo sapiens, UniProt P42336); assay: Inhibition of recombinant human full length N-terminal GST-tagged PI3Kalpha (1 to 1068 residues)/PIK3R1 (1 to 724 residues) expressed in baculovirus expression system using PIP2 as substrate incubated for 1 hr by ADP-Glo assay; conditions: not given
Sequence (P42336 whole entry, looked up, the tested form may be a part, canonical isoform): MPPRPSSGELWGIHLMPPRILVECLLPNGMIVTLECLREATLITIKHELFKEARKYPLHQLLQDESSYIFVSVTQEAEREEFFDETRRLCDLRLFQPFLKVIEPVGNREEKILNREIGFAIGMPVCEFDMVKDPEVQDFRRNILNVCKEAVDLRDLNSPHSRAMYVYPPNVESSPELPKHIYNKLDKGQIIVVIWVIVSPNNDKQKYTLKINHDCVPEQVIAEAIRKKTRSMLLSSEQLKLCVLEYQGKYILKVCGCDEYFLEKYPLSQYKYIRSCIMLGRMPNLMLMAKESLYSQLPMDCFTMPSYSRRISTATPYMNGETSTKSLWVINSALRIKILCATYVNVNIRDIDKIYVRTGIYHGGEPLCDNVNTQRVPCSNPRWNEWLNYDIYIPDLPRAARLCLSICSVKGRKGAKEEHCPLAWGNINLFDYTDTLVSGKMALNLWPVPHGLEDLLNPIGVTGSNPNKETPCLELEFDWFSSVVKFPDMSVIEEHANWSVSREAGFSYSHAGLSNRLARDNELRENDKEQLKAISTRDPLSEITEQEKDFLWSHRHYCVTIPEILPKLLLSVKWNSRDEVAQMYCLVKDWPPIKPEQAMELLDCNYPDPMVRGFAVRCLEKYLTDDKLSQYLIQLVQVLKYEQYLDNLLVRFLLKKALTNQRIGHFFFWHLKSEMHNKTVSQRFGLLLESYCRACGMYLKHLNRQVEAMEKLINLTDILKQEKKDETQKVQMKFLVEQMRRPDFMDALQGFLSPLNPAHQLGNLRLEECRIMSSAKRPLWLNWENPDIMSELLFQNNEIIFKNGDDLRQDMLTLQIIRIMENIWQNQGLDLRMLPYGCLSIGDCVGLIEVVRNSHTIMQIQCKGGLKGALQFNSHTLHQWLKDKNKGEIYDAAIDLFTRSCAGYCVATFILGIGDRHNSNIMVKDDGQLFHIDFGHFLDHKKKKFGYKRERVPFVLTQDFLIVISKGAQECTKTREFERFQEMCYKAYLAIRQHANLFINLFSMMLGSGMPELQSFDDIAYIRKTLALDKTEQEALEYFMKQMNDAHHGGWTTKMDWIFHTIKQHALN

Compound	IC50 [µM]
CC(C)N1C(=O)COc2ccc(-c3ccc(O)cc3)cc21	> 1
O=C1COc2ccc(-c3cccc(NS(=O)(=O)c4ccc(F)cc4)c3)cc2N1c1ccc(F)cc1	> 1
O=C1COc2ccc(-c3cnc4ccccc4c3)cc2N1	> 1
O=C1COc2ccc(-c3ccc(O)cc3)cc2N1c1ccc(F)cc1	> 1
COc1cccc(N2C(=O)COc3ccc(-c4ccc(O)cc4)cc32)c1	> 1
O=C1COc2ccc(-c3ccc(O)cc3)cc2N1c1ccccc1	> 1
COc1ncc(-c2ccc3c(c2)N(C2CC2)C(=O)CO3)cc1NS(=O)(=O)c1ccc(F)cc1	0.131
O=C1COc2ccc(-c3cnc4ccccc4c3)cc2N1C1CC1	> 1
COc1ncc(-c2ccc3c(c2)N(c2ccc(Cl)cc2)C(=O)CO3)cc1NS(=O)(=O)c1ccc(F)cc1	0.022
COc1ncc(-c2ccc3c(c2)NC(=O)CO3)cc1NS(=O)(=O)c1ccc(F)cc1	0.5
Cc1ccc(N2C(=O)COc3ccc(-c4cccc(NS(=O)(=O)c5ccc(F)cc5)c4)cc32)cc1	> 1

test system: HepG2; assay: cells; conditions: Homo sapiens, HepG2, 72 h

Compound	IC50 [µM]
CC(C)N1C(=O)COc2ccc(-c3ccc(O)cc3)cc21	> 40
O=C1COc2ccc(-c3cccc(NS(=O)(=O)c4ccc(F)cc4)c3)cc2N1c1ccc(F)cc1	> 40
O=C1COc2ccc(-c3cnc4ccccc4c3)cc2N1	26.3
O=C1COc2ccc(-c3ccc(O)cc3)cc2N1c1ccc(F)cc1	> 40
COc1cccc(N2C(=O)COc3ccc(-c4ccc(O)cc4)cc32)c1	26.1
O=C1COc2ccc(-c3ccc(O)cc3)cc2N1c1ccccc1	> 40
COc1ncc(-c2ccc3c(c2)N(C2CC2)C(=O)CO3)cc1NS(=O)(=O)c1ccc(F)cc1	14.4
O=C1COc2ccc(-c3cnc4ccccc4c3)cc2N1C1CC1	> 40
COc1ncc(-c2ccc3c(c2)N(c2ccc(Cl)cc2)C(=O)CO3)cc1NS(=O)(=O)c1ccc(F)cc1	17.9
COc1ncc(-c2ccc3c(c2)NC(=O)CO3)cc1NS(=O)(=O)c1ccc(F)cc1	6.59
Cc1ccc(N2C(=O)COc3ccc(-c4cccc(NS(=O)(=O)c5ccc(F)cc5)c4)cc32)cc1	> 40

test system: HeLa; assay: Antiproliferative activity against human HeLa cells assessed as reduction in cell viability incubated for 72 hrs by MTT assay; format: functional, cell-based; conditions: not given

Compound	IC50 [µM]
CC(C)N1C(=O)COc2ccc(-c3ccc(O)cc3)cc21	> 40
O=C1COc2ccc(-c3cccc(NS(=O)(=O)c4ccc(F)cc4)c3)cc2N1c1ccc(F)cc1	> 40
O=C1COc2ccc(-c3cnc4ccccc4c3)cc2N1	> 40
O=C1COc2ccc(-c3ccc(O)cc3)cc2N1c1ccc(F)cc1	> 40
COc1cccc(N2C(=O)COc3ccc(-c4ccc(O)cc4)cc32)c1	> 40
O=C1COc2ccc(-c3ccc(O)cc3)cc2N1c1ccccc1	> 40
COc1ncc(-c2ccc3c(c2)N(C2CC2)C(=O)CO3)cc1NS(=O)(=O)c1ccc(F)cc1	6.03
O=C1COc2ccc(-c3cnc4ccccc4c3)cc2N1C1CC1	> 40
COc1ncc(-c2ccc3c(c2)N(c2ccc(Cl)cc2)C(=O)CO3)cc1NS(=O)(=O)c1ccc(F)cc1	4.83
COc1ncc(-c2ccc3c(c2)NC(=O)CO3)cc1NS(=O)(=O)c1ccc(F)cc1	7.11
Cc1ccc(N2C(=O)COc3ccc(-c4cccc(NS(=O)(=O)c5ccc(F)cc5)c4)cc32)cc1	> 40

biological target: PI3-kinase p110-delta/p85-alpha (Homo sapiens, UniProt O00329); assay: Inhibition of recombinant human full length N-terminal GST-tagged PI3Kdelta (1 to 1044 residues)/PIK3R1 (1 to 724 residues) expressed in baculovirus expression system using PIP2 as substrate incubated for 2 hrs by ADP-Glo assay; conditions: not given
Sequence (P27986 whole entry, the tested form may be a part): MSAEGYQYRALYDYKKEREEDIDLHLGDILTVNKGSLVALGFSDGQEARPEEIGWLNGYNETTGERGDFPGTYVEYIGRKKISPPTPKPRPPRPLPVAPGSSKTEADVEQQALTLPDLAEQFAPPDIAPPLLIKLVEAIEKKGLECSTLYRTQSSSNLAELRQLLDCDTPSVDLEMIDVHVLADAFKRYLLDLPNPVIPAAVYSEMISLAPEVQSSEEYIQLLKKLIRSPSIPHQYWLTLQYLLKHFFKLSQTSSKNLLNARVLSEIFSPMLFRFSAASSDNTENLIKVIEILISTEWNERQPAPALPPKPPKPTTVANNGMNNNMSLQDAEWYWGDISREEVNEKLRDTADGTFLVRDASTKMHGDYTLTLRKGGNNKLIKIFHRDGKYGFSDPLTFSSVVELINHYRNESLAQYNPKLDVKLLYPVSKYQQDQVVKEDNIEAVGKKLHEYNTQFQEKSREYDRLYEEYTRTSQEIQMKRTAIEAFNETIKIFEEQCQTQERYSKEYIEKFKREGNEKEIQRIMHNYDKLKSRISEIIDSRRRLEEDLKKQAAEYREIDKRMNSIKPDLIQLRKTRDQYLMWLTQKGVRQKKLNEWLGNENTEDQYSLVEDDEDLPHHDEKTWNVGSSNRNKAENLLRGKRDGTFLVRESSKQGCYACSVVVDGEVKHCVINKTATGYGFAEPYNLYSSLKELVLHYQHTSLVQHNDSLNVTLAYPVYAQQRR
Sequence (O00329 whole entry, the tested form may be a part): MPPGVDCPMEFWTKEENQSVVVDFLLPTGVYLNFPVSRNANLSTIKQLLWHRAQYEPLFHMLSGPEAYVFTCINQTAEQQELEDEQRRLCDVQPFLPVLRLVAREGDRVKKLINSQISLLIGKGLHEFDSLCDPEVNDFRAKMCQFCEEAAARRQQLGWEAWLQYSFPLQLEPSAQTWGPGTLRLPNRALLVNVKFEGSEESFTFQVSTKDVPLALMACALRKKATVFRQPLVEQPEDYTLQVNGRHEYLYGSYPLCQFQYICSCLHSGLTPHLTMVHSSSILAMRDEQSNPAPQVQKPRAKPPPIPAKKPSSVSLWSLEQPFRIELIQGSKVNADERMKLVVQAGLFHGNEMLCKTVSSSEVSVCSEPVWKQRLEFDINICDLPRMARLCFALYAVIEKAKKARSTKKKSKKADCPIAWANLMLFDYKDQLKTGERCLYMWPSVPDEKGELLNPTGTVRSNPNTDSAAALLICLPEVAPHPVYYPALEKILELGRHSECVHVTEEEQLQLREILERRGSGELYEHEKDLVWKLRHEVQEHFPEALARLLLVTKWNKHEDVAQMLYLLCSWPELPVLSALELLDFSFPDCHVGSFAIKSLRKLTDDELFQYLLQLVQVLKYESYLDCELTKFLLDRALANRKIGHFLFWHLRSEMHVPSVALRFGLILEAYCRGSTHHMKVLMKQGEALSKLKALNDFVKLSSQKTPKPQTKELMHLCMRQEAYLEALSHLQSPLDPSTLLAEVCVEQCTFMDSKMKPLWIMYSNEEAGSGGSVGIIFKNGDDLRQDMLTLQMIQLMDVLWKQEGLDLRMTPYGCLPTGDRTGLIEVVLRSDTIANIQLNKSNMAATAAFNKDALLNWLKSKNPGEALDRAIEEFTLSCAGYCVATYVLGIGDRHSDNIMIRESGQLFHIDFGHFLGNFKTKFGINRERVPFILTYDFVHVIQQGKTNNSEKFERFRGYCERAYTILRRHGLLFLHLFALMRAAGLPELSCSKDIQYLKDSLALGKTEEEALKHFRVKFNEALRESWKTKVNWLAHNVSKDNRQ

Compound	IC50 [µM]
CC(C)N1C(=O)COc2ccc(-c3ccc(O)cc3)cc21	> 1
O=C1COc2ccc(-c3cccc(NS(=O)(=O)c4ccc(F)cc4)c3)cc2N1c1ccc(F)cc1	> 10
O=C1COc2ccc(-c3cnc4ccccc4c3)cc2N1	> 1
O=C1COc2ccc(-c3ccc(O)cc3)cc2N1c1ccc(F)cc1	> 1
COc1cccc(N2C(=O)COc3ccc(-c4ccc(O)cc4)cc32)c1	> 1
O=C1COc2ccc(-c3ccc(O)cc3)cc2N1c1ccccc1	> 1
COc1ncc(-c2ccc3c(c2)N(C2CC2)C(=O)CO3)cc1NS(=O)(=O)c1ccc(F)cc1	0.162
O=C1COc2ccc(-c3cnc4ccccc4c3)cc2N1C1CC1	> 1
COc1ncc(-c2ccc3c(c2)N(c2ccc(Cl)cc2)C(=O)CO3)cc1NS(=O)(=O)c1ccc(F)cc1	0.018
COc1ncc(-c2ccc3c(c2)NC(=O)CO3)cc1NS(=O)(=O)c1ccc(F)cc1	0.3
Cc1ccc(N2C(=O)COc3ccc(-c4cccc(NS(=O)(=O)c5ccc(F)cc5)c4)cc32)cc1	> 1

test system: HCT-116; assay: Antiproliferative activity against human HCT116 cells assessed as reduction in cell viability incubated for 72 hrs by MTT assay; format: functional, cell-based; conditions: HCT-116, 72 h

Compound	IC50 [µM]
CC(C)N1C(=O)COc2ccc(-c3ccc(O)cc3)cc21	> 40
O=C1COc2ccc(-c3cccc(NS(=O)(=O)c4ccc(F)cc4)c3)cc2N1c1ccc(F)cc1	> 40
O=C1COc2ccc(-c3cnc4ccccc4c3)cc2N1	> 40
O=C1COc2ccc(-c3ccc(O)cc3)cc2N1c1ccc(F)cc1	> 40
COc1cccc(N2C(=O)COc3ccc(-c4ccc(O)cc4)cc32)c1	15.3
O=C1COc2ccc(-c3ccc(O)cc3)cc2N1c1ccccc1	> 40
COc1ncc(-c2ccc3c(c2)N(C2CC2)C(=O)CO3)cc1NS(=O)(=O)c1ccc(F)cc1	24.3
O=C1COc2ccc(-c3cnc4ccccc4c3)cc2N1C1CC1	> 40
COc1ncc(-c2ccc3c(c2)N(c2ccc(Cl)cc2)C(=O)CO3)cc1NS(=O)(=O)c1ccc(F)cc1	19.2
COc1ncc(-c2ccc3c(c2)NC(=O)CO3)cc1NS(=O)(=O)c1ccc(F)cc1	24.9
Cc1ccc(N2C(=O)COc3ccc(-c4cccc(NS(=O)(=O)c5ccc(F)cc5)c4)cc32)cc1	35.6

test system: MCF7; assay: cells; conditions: Homo sapiens, MCF7, 72 h

Compound	IC50 [µM]
CC(C)N1C(=O)COc2ccc(-c3ccc(O)cc3)cc21	> 40
O=C1COc2ccc(-c3cccc(NS(=O)(=O)c4ccc(F)cc4)c3)cc2N1c1ccc(F)cc1	> 40
O=C1COc2ccc(-c3cnc4ccccc4c3)cc2N1	> 40
O=C1COc2ccc(-c3ccc(O)cc3)cc2N1c1ccc(F)cc1	30.2
COc1cccc(N2C(=O)COc3ccc(-c4ccc(O)cc4)cc32)c1	> 40
O=C1COc2ccc(-c3ccc(O)cc3)cc2N1c1ccccc1	29
COc1ncc(-c2ccc3c(c2)N(C2CC2)C(=O)CO3)cc1NS(=O)(=O)c1ccc(F)cc1	35.2
O=C1COc2ccc(-c3cnc4ccccc4c3)cc2N1C1CC1	29.5
COc1ncc(-c2ccc3c(c2)N(c2ccc(Cl)cc2)C(=O)CO3)cc1NS(=O)(=O)c1ccc(F)cc1	27.6
COc1ncc(-c2ccc3c(c2)NC(=O)CO3)cc1NS(=O)(=O)c1ccc(F)cc1	32.3
Cc1ccc(N2C(=O)COc3ccc(-c4cccc(NS(=O)(=O)c5ccc(F)cc5)c4)cc32)cc1	32.1

test system: A-375; assay: Antiproliferative activity against human A375 cells assessed as reduction in cell viability incubated for 72 hrs by MTT assay; format: functional, cell-based; conditions: A-375, 72 h

Compound	IC50 [µM]
CC(C)N1C(=O)COc2ccc(-c3ccc(O)cc3)cc21	> 40
O=C1COc2ccc(-c3cccc(NS(=O)(=O)c4ccc(F)cc4)c3)cc2N1c1ccc(F)cc1	> 40
O=C1COc2ccc(-c3cnc4ccccc4c3)cc2N1	> 40
O=C1COc2ccc(-c3ccc(O)cc3)cc2N1c1ccc(F)cc1	> 40
COc1cccc(N2C(=O)COc3ccc(-c4ccc(O)cc4)cc32)c1	30.4
O=C1COc2ccc(-c3ccc(O)cc3)cc2N1c1ccccc1	> 40
COc1ncc(-c2ccc3c(c2)N(C2CC2)C(=O)CO3)cc1NS(=O)(=O)c1ccc(F)cc1	23.9
O=C1COc2ccc(-c3cnc4ccccc4c3)cc2N1C1CC1	> 40
COc1ncc(-c2ccc3c(c2)N(c2ccc(Cl)cc2)C(=O)CO3)cc1NS(=O)(=O)c1ccc(F)cc1	24.1
COc1ncc(-c2ccc3c(c2)NC(=O)CO3)cc1NS(=O)(=O)c1ccc(F)cc1	26.3
Cc1ccc(N2C(=O)COc3ccc(-c4cccc(NS(=O)(=O)c5ccc(F)cc5)c4)cc32)cc1	36.2

test system: A549; assay: cells; conditions: Homo sapiens, A549, 72 h

Compound	IC50 [µM]
CC(C)N1C(=O)COc2ccc(-c3ccc(O)cc3)cc21	> 40
O=C1COc2ccc(-c3cccc(NS(=O)(=O)c4ccc(F)cc4)c3)cc2N1c1ccc(F)cc1	> 40
O=C1COc2ccc(-c3cnc4ccccc4c3)cc2N1	> 40
O=C1COc2ccc(-c3ccc(O)cc3)cc2N1c1ccc(F)cc1	> 40
COc1cccc(N2C(=O)COc3ccc(-c4ccc(O)cc4)cc32)c1	> 40
O=C1COc2ccc(-c3ccc(O)cc3)cc2N1c1ccccc1	> 40
COc1ncc(-c2ccc3c(c2)N(C2CC2)C(=O)CO3)cc1NS(=O)(=O)c1ccc(F)cc1	3.32
O=C1COc2ccc(-c3cnc4ccccc4c3)cc2N1C1CC1	> 40
COc1ncc(-c2ccc3c(c2)N(c2ccc(Cl)cc2)C(=O)CO3)cc1NS(=O)(=O)c1ccc(F)cc1	8.35
COc1ncc(-c2ccc3c(c2)NC(=O)CO3)cc1NS(=O)(=O)c1ccc(F)cc1	8.07
Cc1ccc(N2C(=O)COc3ccc(-c4cccc(NS(=O)(=O)c5ccc(F)cc5)c4)cc32)cc1	> 40

biological target: Serine/threonine-protein kinase mTOR (Homo sapiens, UniProt P42345); assay: Inhibition of recombinant human N-terminal FLAG-tagged mTOR (1362 to end residues) using Ulight-4E-BP1 as substrate incubated for 30 mins by fluorescence assay; conditions: not given

Compound	IC50 [µM]
CC(C)N1C(=O)COc2ccc(-c3ccc(O)cc3)cc21	> 1
O=C1COc2ccc(-c3cccc(NS(=O)(=O)c4ccc(F)cc4)c3)cc2N1c1ccc(F)cc1	> 1
O=C1COc2ccc(-c3cnc4ccccc4c3)cc2N1	> 1
O=C1COc2ccc(-c3ccc(O)cc3)cc2N1c1ccc(F)cc1	> 1
COc1cccc(N2C(=O)COc3ccc(-c4ccc(O)cc4)cc32)c1	> 1
O=C1COc2ccc(-c3ccc(O)cc3)cc2N1c1ccccc1	> 1
COc1ncc(-c2ccc3c(c2)N(C2CC2)C(=O)CO3)cc1NS(=O)(=O)c1ccc(F)cc1	0.253
O=C1COc2ccc(-c3cnc4ccccc4c3)cc2N1C1CC1	> 1
COc1ncc(-c2ccc3c(c2)N(c2ccc(Cl)cc2)C(=O)CO3)cc1NS(=O)(=O)c1ccc(F)cc1	0.0126
COc1ncc(-c2ccc3c(c2)NC(=O)CO3)cc1NS(=O)(=O)c1ccc(F)cc1	0.635
Cc1ccc(N2C(=O)COc3ccc(-c4cccc(NS(=O)(=O)c5ccc(F)cc5)c4)cc32)cc1	> 1
